Drawing on PubChem BioAssay AID248 (DTP/NCI, 2004), this text covers T/C for 17 compounds.

The experiment deals with L1210 leukemia ip in BDF1 mice, survival T/C. The experiment in a line: NCI In Vivo Anticancer Drug Screen. Data for tumor model L1210 Leukemia (intraperitoneal) in B6D2F1 (BDF1) mice. The following applies: endpoint: mean survival time, higher = longer survival. Put shortly:
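Ratio derived from survival: compound-dosed mice over vehicle-dosed mice, all bearing a transplantable tumor.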

Where [1] appears, read: dose: 100.0 mg/kg/injection, schedule: Q04DX002 (ip), vehicle: Klucel (hydroxypropylcellulose) (HPC).
[2] abbreviates: dose: 100.0 mg/kg/injection, schedule: Q01DX001 (ip), vehicle: carboxymethylcellulose (CMC).
The mark [3] stands for this setting: dose: 200.0 mg/kg/injection, schedule: Q01DX001 (ip), vehicle: carboxymethylcellulose (CMC).
Where [4] appears, read: dose: 400.0 mg/kg/injection, schedule: Q01DX001 (ip), vehicle: carboxymethylcellulose (CMC).
Setting [5] is: dose: 100.0 mg/kg/injection, schedule: Q01DX009 (ip), vehicle: saline with Tween-80.
Setting [6] is: dose: 100.0 mg/kg/injection, schedule: Q01DX009 (ip), vehicle: Klucel (hydroxypropylcellulose) (HPC).
Setting [7] is: dose: 200.0 mg/kg/injection, schedule: Q01DX009 (ip), vehicle: Klucel (hydroxypropylcellulose) (HPC).
[8] abbreviates: dose: 400.0 mg/kg/injection, schedule: Q01DX009 (ip), vehicle: Klucel (hydroxypropylcellulose) (HPC).

SMILES strings stand for the structures. Toxic doses and inconclusive results are not listed.

For `O=C(COc1cccc(Cl)c1)NCc1ccc(NC(=O)c2cccc(S(=O)(=O)F)c2)cc1`, the T/C (dose: 25.0 mg/kg/injection, schedule: Q04DX002 (ip), vehicle: Klucel (hydroxypropylcellulose) (HPC)) is 111 % of control; the T/C (dose: 50.0 mg/kg/injection, schedule: Q04DX002 (ip), vehicle: Klucel (hydroxypropylcellulose) (HPC)) was 107 % of control; the T/C under setting [1] was 100 % of control.
Consider `CCN(CCO)CCNc1ccc(C)c2sc3ccccc3c(=O)c12`, for which the T/C is 110 % of control (dose: 26.0 mg/kg/injection, schedule: Q01DX009 (ip), vehicle: saline); 122 % of control (dose: 40.0 mg/kg/injection, schedule: Q01DX009 (ip), vehicle: saline); 105 % of control (dose: 50.0 mg/kg/injection, schedule: Q01DX001 (ip), vehicle: saline); 124 % of control (dose: 60.0 mg/kg/injection, schedule: Q01DX009 (ip), vehicle: saline); 111 % of control (dose: 78.0 mg/kg/injection, schedule: Q04DX003 (ip), vehicle: saline); 116 % of control (dose: 100.0 mg/kg/injection, schedule: Q01DX001 (ip), vehicle: saline). Also, the T/C is 104 % of control (dose: 114.0 mg/kg/injection, schedule: Q01DX001 (ip), vehicle: saline); 120 % of control (dose: 114.0 mg/kg/injection, schedule: Q04DX003 (ip), vehicle: saline); 95 % of control (dose: 135.0 mg/kg/injection, schedule: Q01DX009 (ip), vehicle: saline); 110 % of control (dose: 174.0 mg/kg/injection, schedule: Q01DX001 (ip), vehicle: saline); 172 % of control (dose: 174.0 mg/kg/injection, schedule: Q04DX003 (ip), vehicle: saline); 121 % of control (dose: 200.0 mg/kg/injection, schedule: Q01DX001 (ip), vehicle: saline). The T/C (dose: 260.0 mg/kg/injection, schedule: Q01DX001 (ip), vehicle: saline) is 165 % of control.
In the case of `O=C(O)c1cc(CBr)cc(CBr)c1`, the T/C reads like this: (dose: 3.13 mg/kg/injection, schedule: Q01DX009 (ip), vehicle: saline with Tween-80) 97 % of control; (dose: 6.25 mg/kg/injection, schedule: Q01DX001 (ip), vehicle: saline with Tween-80) 102 % of control; (dose: 6.25 mg/kg/injection, schedule: Q01DX009 (ip), vehicle: saline with Tween-80) 101 % of control; (dose: 12.5 mg/kg/injection, schedule: Q01DX001 (ip), vehicle: saline with Tween-80) 113 % of control.
Turning to `O=c1[nH]c2ccccc2c2ccc(Br)cc12`, the T/C was 104 % of control under setting [2], 97 % of control under setting [3] and 90 % of control under setting [4].
In the case of `Nc1cccc2cccc([N+](=O)[O-])c12`, the T/C under setting [2] was 100 % of control; the T/C (dose: 100.0 mg/kg/injection, schedule: Q01DX009 (ip), vehicle: saline) was 87 % of control; the T/C under setting [3] is 94 % of control; the T/C (dose: 200.0 mg/kg/injection, schedule: Q01DX009 (ip), vehicle: saline) was 94 % of control; the T/C under setting [4] was 96 % of control.
Turning to `CCOC(=O)c1nnn(-c2cccnc2)c1-c1ccc([N+](=O)[O-])cc1`, the T/C is, setting by setting: under setting [1], 111 % of control; (dose: 200.0 mg/kg/injection, schedule: Q04DX002 (ip), vehicle: Klucel (hydroxypropylcellulose) (HPC)) 101 % of control; (dose: 400.0 mg/kg/injection, schedule: Q04DX002 (ip), vehicle: Klucel (hydroxypropylcellulose) (HPC)) 105 % of control.
As for `CCOC(=O)/C(C#N)=C1/C=C(N)CCC1`, the T/C is, setting by setting: under setting [2], 98 % of control; under setting [3], 94 % of control; under setting [4], 100 % of control.
Consider `N#CC1(OC2OC(CO)C(O)C(O)C2O)C=CC(O)C1O` (centres undefined), for which the T/C runs as follows: (dose: 100.0 mg/kg/injection, schedule: Q04DX003 (ip), vehicle: saline) 98 % of control; (dose: 200.0 mg/kg/injection, schedule: Q04DX003 (ip), vehicle: saline) 105 % of control; (dose: 400.0 mg/kg/injection, schedule: Q04DX003 (ip), vehicle: saline) 96 % of control.
For `O=C(O)CCNCC(=O)O`, the T/C (dose: 75.0 mg/kg/injection, schedule: Q01DX001 (ip), vehicle: saline) was 100 % of control; the T/C (dose: 150.0 mg/kg/injection, schedule: Q01DX001 (ip), vehicle: saline) was 100 % of control; the T/C (dose: 300.0 mg/kg/injection, schedule: Q01DX001 (ip), vehicle: saline) was 101 % of control.
For `CC(=O)[C@@]1(O)CC[C@H]2[C@@H]3C[C@H](C)C4=CC(=O)C=C[C@]4(C)[C@@]3(F)[C@@H](O)C[C@@]21C`, the T/C was 103 % of control (dose: 100.0 mg/kg/injection, schedule: Q01DX001 (sc), vehicle: steriod suspending solution); 115 % of control (dose: 100.0 mg/kg/injection, schedule: Q01DX009 (sc), vehicle: steriod suspending solution); 100 % of control (dose: 200.0 mg/kg/injection, schedule: Q01DX001 (sc), vehicle: steriod suspending solution); 108 % of control (dose: 200.0 mg/kg/injection, schedule: Q01DX009 (sc), vehicle: steriod suspending solution); 103 % of control (dose: 400.0 mg/kg/injection, schedule: Q01DX001 (sc), vehicle: steriod suspending solution); 111 % of control (dose: 400.0 mg/kg/injection, schedule: Q01DX009 (sc), vehicle: steriod suspending solution). The T/C (dose: 800.0 mg/kg/injection, schedule: Q01DX001 (sc), vehicle: steriod suspending solution) was 103 % of control and the T/C (dose: 800.0 mg/kg/injection, schedule: Q01DX009 (sc), vehicle: steriod suspending solution) is 101 % of control.
In the case of `C1CCC(C2CCCC2)C1`, the T/C (dose: 100.0 mg/kg/injection, schedule: Q04DX002 (ip), vehicle: saline with Tween-80) was 100 % of control; the T/C (dose: 200.0 mg/kg/injection, schedule: Q04DX002 (ip), vehicle: saline with Tween-80) is 89 % of control; the T/C (dose: 400.0 mg/kg/injection, schedule: Q04DX002 (ip), vehicle: saline with Tween-80) was 110 % of control.
Consider `CCOC(=O)c1ccc(N)c(C(O)(C(F)(F)F)C(F)(F)F)c1`, for which the T/C is, setting by setting: under setting [5], 106 % of control; (dose: 200.0 mg/kg/injection, schedule: Q01DX009 (ip), vehicle: saline with Tween-80) 95 % of control; (dose: 400.0 mg/kg/injection, schedule: Q01DX009 (ip), vehicle: saline with Tween-80) 104 % of control.
Consider `CC12CCC(CC1)C2CO` (centres undefined), for which the T/C (dose: 50.0 mg/kg/injection, schedule: Q01DX009 (ip), vehicle: saline with Tween-80) is 105 % of control and the T/C under setting [5] is 98 % of control.
Take `NC(=O)C=C1c2ccccc2-c2ccccc21`: the T/C reads like this: (dose: 25.0 mg/kg/injection, schedule: Q01DX009 (ip), vehicle: Klucel (hydroxypropylcellulose) (HPC)) 97 % of control; (dose: 50.0 mg/kg/injection, schedule: Q01DX009 (ip), vehicle: Klucel (hydroxypropylcellulose) (HPC)) 94 % of control; under setting [6], 96 % of control; under setting [7], 91 % of control; under setting [8], 89 % of control.
With `CN(C)c1ccc(C(=O)c2ccc(N(C)C)c(N)c2)cc1N`, the T/C is, setting by setting: (dose: 100.0 mg/kg/injection, schedule: Q01DX001 (ip), vehicle: other) 106 % of control; (dose: 200.0 mg/kg/injection, schedule: Q01DX001 (ip), vehicle: other) 92 % of control; (dose: 400.0 mg/kg/injection, schedule: Q01DX001 (ip), vehicle: other) 101 % of control.
As for `Cc1ccc(C(C)C)cc1OCO`, the T/C (dose: 20.0 mg/kg/injection, schedule: Q01DX Z (ip), vehicle: methylcellulose (MC)) is 98 % of control and the T/C (dose: 30.0 mg/kg/injection, schedule: Q01DX Z (ip), vehicle: methylcellulose (MC)) was 105 % of control.
Turning to `CCN(CC)C(=S)Nc1ccc([N+](=O)[O-])cc1`, the T/C is, setting by setting: under setting [6], 104 % of control; under setting [7], 86 % of control; under setting [8], 100 % of control.
